According to PubChem BioAssay (NCI):
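Values below derive from 48-hour exposures of cells grown in 96-well plates, with endpoints linearly interpolated between the two concentrations bracketing the appropriate inhibition level. Here, GI50 denotes the concentration required for 50% inhibition of growth. TGI denotes the concentration required for complete inhibition of growth.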

Tests used:
Experiment in all cases: NCI tumour cell line growth inhibition, 48 h
[1] = system: 786-0 renal
[2] = system: A498 renal
[3] = system: A549 NSCLC
[4] = system: ACHN renal
[5] = system: BT-549 breast
[6] = system: CAKI-1 renal
[7] = system: CCRF-CEM leukemia
[8] = system: COLO 205 colon
[9] = system: DU-145 prostate
[10] = system: EKVX NSCLC
[11] = system: HCC-2998 colon
[12] = system: HCT-116 colon
[13] = system: HCT-15 colon
[14] = system: HL-60(TB) leukemia
[15] = system: HOP-62 NSCLC
[16] = system: HOP-92 NSCLC
[17] = system: HS 578T breast
[18] = system: HT29 colon
[19] = system: IGROV1 ovarian
[20] = system: K-562 leukemia
[21] = system: KM12 colon
[22] = system: LOX IMVI melanoma
[23] = system: M14 melanoma
[24] = system: MALME-3M melanoma
[25] = system: MCF7 breast
[26] = system: MDA-MB-231 breast
[27] = system: MDA-MB-435
[28] = system: MOLT-4 leukemia
[29] = system: NCI-H226 lung

SMILES: Nc1c(O)c(S(=O)(=O)O)c(O)c2c1C(=O)c1ccccc1C2=O
- GI50 [1]: 4.73 µM
- TGI [1]: 41.3 µM
- GI50 [2]: 2330 nM
- TGI [2]: 7.53 µM
- GI50 [3]: 2900 nM
- TGI [3]: 12 µM
- GI50 [4]: 2430 nM
- TGI [4]: 6.8 µM
- GI50 [5]: 2780 nM
- TGI [5]: 8.94 µM
- GI50 [6]: 2340 nM
- TGI [6]: 7.26 µM
- GI50 [7]: 3.1 µM
- TGI [7]: 11 µM
- GI50 [8]: 1610 nM
- TGI [8]: 3.01 µM
- GI50 [9]: 3.8 µM
- TGI [9]: > 100 µM
- GI50 [10]: 3.09 µM
- TGI [10]: > 100 µM
- GI50 [11]: 2840 nM
- TGI [11]: 32.8 µM
- GI50 [12]: 2780 nM
- TGI [12]: 10.9 µM
- GI50 [13]: 2640 nM
- TGI [13]: 11.2 µM
- GI50 [14]: 1560 nM
- TGI [14]: 3.65 µM
- GI50 [15]: 2920 nM
- TGI [15]: > 100 µM
- GI50 [16]: 1500 nM
- TGI [16]: 4.65 µM
- GI50 [17]: 4.69 µM
- TGI [17]: > 100 µM
- GI50 [18]: 2720 nM
- TGI [18]: 10.4 µM
- GI50 [19]: 3.29 µM
- TGI [19]: > 100 µM
- GI50 [20]: 3.13 µM
- TGI [20]: 13.9 µM
- GI50 [21]: 2940 nM
- TGI [21]: 12.8 µM
- GI50 [22]: 3.08 µM
- TGI [22]: 12.3 µM
- GI50 [23]: 3.95 µM
- TGI [23]: > 100 µM
- GI50 [24]: 2610 nM
- TGI [24]: 8.36 µM
- GI50 [25]: 2500 nM
- TGI [25]: 8.13 µM
- GI50 [26]: 5.85 µM
- TGI [26]: 28.1 µM
- GI50 [27]: 3.33 µM
- TGI [27]: > 100 µM
- GI50 [28]: 1900 nM
- TGI [28]: 4.91 µM
- GI50 [29]: 4.12 µM
